Results on 50 compounds are retold here after patent US20050288347A1, “Certain triazole-based compounds, compositions, and uses thereof” (priority 2004, published 2005).

“Also recorded” adds a separate entry of the source.

The first assay deals with protein kinase. In words: HTS ATP-utilizing enzyme assay, off-chip mobility-shift format (Caliper HTS 250). To be noted: kinase(s) for which the compound exhibits protein kinase inhibitory activity; test compound 10 μM; active = greater than three-sigma from the mean activity of inactive compounds. In kind it is biochemical, human. The text has this:
The following procedures describe the reagent and plate preparation for a HTS of an ATP-utilizing enzyme, such as a protein kinase, run in an off-chip mobility-shift assay format. The following provides an HTS protocol for running a protein kinase HTS screen on a Caliper HTS 250 microfluidics system. The following parameters are dependent on the protein kinase used and can be determined by one skilled in the art as part of a typical assay development process. For example, the peptide substrate used can be identified from the current literature, by screening a peptide library of potential protein kinase substrates, or by other applicable means accepted in the field.
The following table provides typical screen assay parameters appropriate for a Caliper HTS 250 microfluidics system.
The reagents and buffers listed in the following table are generally applicable for developing and running an HTS screen on a human protein kinase using the Caliper HTS 250 system.
The following reagents were prepared using the previously described buffers.
A 2× Master Buffer solution was prepared by combining 200 mL of 1 M HEPES, pH 7.5, 2 mL of 10% Triton X-100, 20 mL of 10% BSA, and 778 mL of H2O.
Assays to determine the kinase inhibitory activity of chemical entities of the present disclosure were performed using a Caliper HTS 250 microfluidics device, Greiner U-bottom assay plates, a Multidrop for transfer of reagents, and Biomek FX (AMNCBM03) software. Initially, 2.4 μL of a 1 mM solution of a test compound in 100% DMSO was added to a well of the Greiner U-bottom plate. A single Greiner U-bottom plate having 24×16 wells could include multiple test compounds. […] Using the Biomek FX, 10 μL of 0.5 M EDTA was added by the span-8 to wells, indicated as 100% Control and 2.4 μL of 100% DMSO was added by the span-8 to wells, indicated as 0% Control. […] The total reaction volume in each well was 25 μL, and the concentration of the test compound was 10 μM. The assay plate was incubated for 2.5 hrs at 20° C. to 22° C. […] The inhibition of the ATP-utilizing enzyme, such as a particular protein kinase, was determined by measuring the ratio of the peptide substrate to phosphorylated product for each well of the assay plate using the Caliper HTS 250 system.
The use of three-sigma statistical limits represents a conservative method for declaring potential hits among targets. The three-sigma activity, as well as the mean population activity, can be different for each target enzyme.
For `Cn1c(S)nnc1CCc1nc2ccccc2[nH]1` [5-(2-(1H-benzo[d]imidazol-2-yl)ethyl)-4-methyl-4H-1,2,4-triazole-3-thiol], the Kinase result was “GSK3-α; also recorded: GSK3-β”.

With `Sc1nnc(CNc2cccc(Cl)c2)n1CCc1ccccc1` [5-((3-chlorophenylamino)methyl)-4-phenethyl-4H-1,2,4-triazole-3-thiol], the Kinase result is “GSK3-α; also recorded: GSK3-β; also recorded: AURORA-A”.

In the case of `Cn1c(SCC(=O)Nc2cccc(O)c2)nnc1-c1ccco1`, the Kinase result is on record as “CSK”.

Turning to `CC(Sc1nnc(-c2ccc(O)cc2)n1Cc1ccco1)C(=O)Nc1ccc([N+](=O)[O-])cc1` (centres unmarked), the Kinase result is “LCK”.

Consider `Cc1ccc(-n2c(Cc3ccccc3)nnc2SCC(=O)N2c3ccccc3Sc3ccccc32)cc1`, for which the Kinase result is listed as “CDK2-cyclinE”.

Turning to `COc1ccc(-c2nnc(SCC(N)=O)n2-c2ccccc2)cc1` [2-(5-(4-methoxyphenyl)-4-phenyl-4H-1,2,4-triazol-3-ylthio)acetamide], the Kinase entry is “PDK1”.

For the compound `CCOc1ccc(NCc2nnc(S)n2-c2cccc(Cl)c2)cc1`, the Kinase result is given as “PDGFRR-α; also recorded: FLT-3”.

Turning to `O=C(O)CSc1nnc(CNc2ccc(F)cc2)n1Cc1ccccc1`, the Kinase entry is “DAPK1”.

For the compound `CCn1c(COc2ccc(Cl)c(C)c2)nnc1SCC(=O)N1CCCCC1`, the Kinase entry is reported as “FYN”.

`CCn1c(SCC(=O)N2CCCC2)nnc1-c1ccc(S(=O)(=O)N2CCCCCC2)cc1`: the Kinase result is reported as “AURORA-A”.

For the compound `CCn1c(SCC(=O)c2ccccc2)nnc1C1CCCCC1` [2-(5-cyclohexyl-4-ethyl-4H-1,2,4-triazol-3-ylthio)-1-phenylethanone], the Kinase result is recorded as “SRC”.

On to `C=CCn1c(Sc2c(O)nc3ccccc3c2-c2ccccc2)nnc1-c1ccc(Cl)c(Cl)c1`, for which the Kinase result is given as “FLT-3”.

`CC(Sc1nnc(-c2cccnc2)n1-c1ccccc1)C(=O)O` (centres unmarked) [2-(4-phenyl-5-(pyridin-3-yl)-4H-1,2,4-triazol-3-ylthio)propanoic acid]: the Kinase result was “AURORA-A”.

`CCn1c(SCC(=O)c2ccccc2)nnc1-c1cccnc1` [2-(4-ethyl-5-(pyridin-3-yl)-4H-1,2,4-triazol-3-ylthio)-1-phenylethanone]: the Kinase result is listed as “SYK”.

As to `Cn1c(SCC(=O)N(CC(=O)NC2CCCCC2)C2CCCC2)nnc1-c1ccc(C(C)(C)C)cc1`, the Kinase entry is recorded as “DAPK1”.

On to `C=CCn1c(S)nnc1-c1cc2ccccc2cc1O` [3-(4-allyl-5-mercapto-4H-1,2,4-triazol-3-yl)naphthalen-2-ol], for which the Kinase result is “MSK1”.

In the case of `CCn1c(SCC(=O)N2CCCC(C)C2)nnc1-c1ccc(S(=O)(=O)N2CCN(C)CC2)cc1` (centres unmarked), the Kinase result is recorded as “FYN”.

Turning to `COc1ccccc1-c1nnc(S)n1-c1ccc(C)cc1` [5-(2-methoxyphenyl)-4-p-tolyl-4H-1,2,4-triazole-3-thiol], the Kinase result is “CDK2-cyclinA and CDK2-cyclinE and CDK5”.

Consider `Sc1nnc(-c2ccncc2)n1-c1ccccc1` [4-phenyl-5-(pyridin-4-yl)-4H-1,2,4-triazole-3-thiol], for which the Kinase result is on record as “LCK”.

In the case of `CC(C)(C)c1nnc(SCC#N)[nH]1` [2-(5-tert-butyl-4H-1,2,4-triazol-3-ylthio)acetonitrile], the Kinase result was “DYRK2; also recorded: GSK3-α”.

`COc1ccc(-n2c(SCC(=O)O)nnc2-c2ccccc2OC)cc1`: the Kinase entry is reported as “AURORA-A”.

Consider `Cc1ccc(NCc2nnc(SCC#N)n2-c2ccccc2)c(C)c1`, for which the Kinase result is listed as “AKT1”.

Consider `CCc1nnc(NC(=O)CSc2nnc(-c3ccc(S(=O)(=O)N4CCN(C)CC4)cc3)n2CC)s1`, for which the Kinase entry is listed as “CHEK2”.

On to `CCn1c(SCC(=O)OC)nnc1-c1ccccc1` [methyl 2-(4-ethyl-5-phenyl-4H-1,2,4-triazol-3-ylthio)acetate], for which the Kinase result is given as “MAPKAPK-2”.

For `CCc1nnc(NC(=O)CSc2nnc(-c3ccc(O)cc3)n2-c2ccc(OC)cc2)s1`, the Kinase result is “GSK3-β and GSK3-α and AKT1”.

As to `COc1ccccc1-n1c(S)nnc1-c1cccnc1` [4-(2-methoxyphenyl)-5-(pyridin-3-yl)-4H-1,2,4-triazole-3-thiol], the Kinase result was “AURORA-A”.

In the case of `Cn1c(SCC#N)nnc1-c1ccc(O)cc1` [2-(5-(4-hydroxyphenyl)-4-methyl-4H-1,2,4-triazol-3-ylthio)acetonitrile], the Kinase result was “GSK3-β; also recorded: GSK3-α; also recorded: DAPK1”.

For the compound `CC(=O)c1ccc(NC(=O)CSc2nnc(-c3ccc(O)cc3)n2C)cc1`, the Kinase entry is reported as “AKT1”.

In the case of `COc1ccc(-c2nnc(SCC(=O)Nc3ccccc3O)n2-c2ccccc2)cc1OC`, the Kinase entry is given as “AURORA-A”.

`Cn1c(Cn2cnc3ccccc32)nnc1SCC(=O)Nc1ccccc1Cl`: the Kinase result is on record as “FYN”.

For `COc1ccc(-c2nnc(SCC(=O)Nc3ccccc3Cl)n2-c2ccccc2)cc1`, the Kinase result is “INSR and SYK”.

Turning to `O=C(CSc1nnc(-c2ccccc2O)n1Cc1ccccc1)Nc1cccc(I)c1`, the Kinase result is “SYK”.

Take `COc1ccc(NCc2nnc(SCC(=O)Nc3ccc(C(C)=O)cc3)n2-c2ccc(OC)cc2)cc1`: the Kinase result was “PDGFRR-α and FYN and c-TAK1”.

Staying with this assay, now noted: test compound 10 μM; active = activity greater than three-sigma from the mean of the predominately inactive population for that enzyme.
Consider `COc1ccccc1-n1c(SCC(=O)c2ccc(F)cc2)nnc1-c1cccc(Cl)c1`, for which the “protein kinase against which the compound exhibits inhibitory activity (Table 3)” value is “ROCK2”.

Consider `OC(CSc1nnc(-c2cccnc2)[nH]1)C(F)(F)F` (centres unmarked) [1,1,1-trifluoro-3-(5-(pyridin-3-yl)-4H-1,2,4-triazol-3-ylthio)propan-2-ol], for which the “protein kinase against which the compound exhibits inhibitory activity (Table 3)” value is reported as “AURORA-A”.

Take `Cc1ccc(CSc2nnc(Cc3ccccc3)[nH]2)cc1` [3-benzyl-5-(4-methylbenzylthio)-4H-1,2,4-triazole]: the “protein kinase against which the compound exhibits inhibitory activity (Table 3)” value is “AURORA-A”.

Turning to `CCn1c(CNc2ccc(C)cc2)nnc1SCc1ccc(Cl)c(Cl)c1`, the “protein kinase against which the compound exhibits inhibitory activity (Table 3)” value is reported as “AURORA-A; also recorded: CDK2-cyclinE”.

On to `c1ccc(CCSc2nnc(-c3cccs3)[nH]2)cc1` [3-(phenethylthio)-5-(thiophen-2-yl)-4H-1,2,4-triazole], for which the “protein kinase against which the compound exhibits inhibitory activity (Table 3)” value is listed as “AURORA-A; also recorded: FLT-3”.

For the compound `Cn1cnnc1SCc1csc(Cc2ccc(Cl)c(Cl)c2)n1`, the “protein kinase against which the compound exhibits inhibitory activity (Table 3)” value was “GSK3-α”.

With `Clc1ccc(Cn2c(Cc3ccccc3)nnc2SCc2ccccc2)cc1Cl` [3-benzyl-5-(benzylthio)-4-(3,4-dichlorobenzyl)-4H-1,2,4-triazole], the “protein kinase against which the compound exhibits inhibitory activity (Table 3)” value is given as “AURORA-A”.

As to `CCSc1nnc(COc2ccc(CC)cc2)n1C` [3-((4-ethylphenoxy)methyl)-5-(ethylthio)-4-methyl-4H-1,2,4-triazole], the “protein kinase against which the compound exhibits inhibitory activity (Table 3)” value was “AURORA-A”.

Consider `CN1C=NN(c2cc3ccccc3cc2O)C1SCc1nnc(-c2ccccc2)o1` (centres unmarked), for which the “protein kinase against which the compound exhibits inhibitory activity (Table 3)” value was “GSK3-β; also recorded: GSK3-α”.

For `CCCCSc1nnc(COc2ccc(Br)cc2)n1CC` [3-((4-bromophenoxy)methyl)-5-(butylthio)-4-ethyl-4H-1,2,4-triazole], the “protein kinase against which the compound exhibits inhibitory activity (Table 3)” value is listed as “CDK2-cyclinA; also recorded: AURORA-A”.

As to `COc1ccccc1-n1c(SCC(=O)c2ccc(Cl)s2)nnc1-c1cccc(Cl)c1`, the “protein kinase against which the compound exhibits inhibitory activity (Table 3)” value is “ROCK2”.

As for `Cc1cccc(-c2nnc(SCC(N)=O)[nH]2)c1` [2-(5-m-tolyl-4H-1,2,4-triazol-3-ylthio)acetamide], the “protein kinase against which the compound exhibits inhibitory activity (Table 3)” value was “CHEK2; also recorded: AURORA-A; also recorded: FLT-3”.

Regarding `COc1cc2c(cc1NC(=O)CSc1nncn1C)oc1ccccc12`, the “protein kinase against which the compound exhibits inhibitory activity (Table 3)” value is “CHEK2 and INSR and AURORA-A”.

`COC(=O)c1ccc(CSc2nnc(-c3cccs3)[nH]2)cc1` [methyl 4-((5-(thiophen-2-yl)-4H-1,2,4-triazol-3-ylthio)methyl)benzoate]: the “protein kinase against which the compound exhibits inhibitory activity (Table 3)” value is “AURORA-A; also recorded: FLT-3; also recorded: c-TAK1”.

In the case of `CCCCSc1nnc(-c2ccccc2)[nH]1` [3-(butylthio)-5-phenyl-4H-1,2,4-triazole], the “protein kinase against which the compound exhibits inhibitory activity (Table 3)” value is “AURORA-A; also recorded: FLT-3; also recorded: c-TAK1”.

For `COc1ccccc1-n1c(SCCN)nnc1-c1cccc(Cl)c1`, the “protein kinase against which the compound exhibits inhibitory activity (Table 3)” value is “PIM-1-KINASE”.

As to `Cn1c(SCc2c(F)cccc2Cl)nnc1-c1ccncc1` [4-(5-(2-chloro-6-fluorobenzylthio)-4-methyl-4H-1,2,4-triazol-3-yl)pyridine], the “protein kinase against which the compound exhibits inhibitory activity (Table 3)” value was “GSK3-β; also recorded: AURORA-A”.
